Results taken from US20240199692A1 (priority 2019, published 2024).
*1 amine or outer side, *2 acyl side, *3 side chain or, on linkers, in order; H or OH if unused. Where a SMILES comes first, the peptide text is derived from it. [ ]: non-standard residue; d: D form. The star is where a group is joined. Benzenesulfonyl(4-OPh) = O=S(=O)(c1ccc(Oc2ccccc2)cc1)*; Benzoyl(4-OPh) = O=C(c1ccc(Oc2ccccc2)cc1)*; NMeF = CN[C@@H](Cc1ccccc1)C(=O)O; NMeGABA = CN(CCCC(=O)[*:2])[*:1]; NMeI = CC[C@H](C)[C@H](NC)C(=O)O; NMeE = CN[C@@H](CCC(=O)O)C(=O)O; NMeD = CN[C@@H](CC(=O)O)C(=O)O; NMeN = CN[C@@H](CC(N)=O)C(=O)O; NMeL = CN[C@@H](CC(C)C)C(=O)O; NMeM = CN[C@@H](CCSC)C(=O)O; NMeV = CN[C@H](C(=O)O)C(C)C; β3hP = O=C(O)C[C@@H]1CCCN1; NMeA = CN[C@@H](C)C(=O)O; Dab = NCC[C@H](N)C(=O)O; Aib = CC(C)(N)C(=O)O; Ava = NCCCCC(=O)O; GABA = NCCCC(=O)O; Sar = CNCC(=O)O

Biological target: T1, MMP2 (Homo sapiens, UniProt P08253)
T1 sequence (P08253 110-660): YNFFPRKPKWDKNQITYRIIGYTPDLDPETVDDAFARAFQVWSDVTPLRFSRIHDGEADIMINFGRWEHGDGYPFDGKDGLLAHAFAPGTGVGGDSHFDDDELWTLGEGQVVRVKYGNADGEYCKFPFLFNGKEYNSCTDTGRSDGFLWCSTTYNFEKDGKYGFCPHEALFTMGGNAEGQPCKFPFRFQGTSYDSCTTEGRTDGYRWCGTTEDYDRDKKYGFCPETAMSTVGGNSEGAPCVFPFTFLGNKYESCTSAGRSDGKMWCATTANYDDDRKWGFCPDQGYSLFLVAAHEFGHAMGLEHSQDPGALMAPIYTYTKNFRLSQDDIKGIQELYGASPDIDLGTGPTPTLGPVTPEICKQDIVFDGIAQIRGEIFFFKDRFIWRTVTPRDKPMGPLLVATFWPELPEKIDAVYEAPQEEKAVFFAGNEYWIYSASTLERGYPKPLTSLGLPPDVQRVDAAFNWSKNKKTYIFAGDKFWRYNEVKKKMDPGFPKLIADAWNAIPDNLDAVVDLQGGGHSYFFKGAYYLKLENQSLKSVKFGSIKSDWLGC
Test: Inhibitory effects on human MMP2 (Method 1), enzyme assay with MOCAc-Pro-Leu-Gly-Leu-A2pr(Dnp)-Ala-Arg-NH2 substrate, 96-well
Assay type: biochemical
Conditions: not given
Protocol: In a reaction solution [50 mmol/L Tris-HCl (pH 7.5), 150 mmol/L NaCl, 10 mmol/L CaCl2, 0.05% Brij L23], 100 μg/mL human recombinant MMP2 enzyme and 1 mmol/L 4-Aminophenylmercuric acetate were mixed together, and reacted at 37° C. for 60 minutes. The human MMP2 activated through the reaction was poured into a 96-well microplate to reach a final concentration of 0.7 or 7 ng/mL.

SMILES | IC50
CC[C@H](C)[C@@H](C(=O)N1CCC[C@H]1CC(N)=O)N(C)C(=O)[C@H](CC(C)C)NC(=O)[C@H](CCN)NC(=O)[C@H](CC(=O)O)NC(=O)[C@H](CC(N)=O)NC(=O)CCCNC(=O)c1ccc(Oc2ccccc2)cc1 [Compound 106] | 0.16 nM

Same assay, conditions: Test Example No. 1-1 (Method 1, 96-well microplate); read-out: Human MMP2, IC50

SMILES | IC50
CC[C@H](C)[C@@H](C(=O)N1CCC[C@H]1CC(N)=O)N(C)C(=O)[C@H](CC(C)C)NC(=O)[C@H](CCN)NC(=O)[C@H](CC(=O)O)NC(=O)[C@H](NC(=O)CCCCNS(=O)(=O)c1ccc(Oc2ccccc2)cc1)[C@H](C)O [Compound 85] ({Benzenesulfonyl(4-OPh)-Ava}-[dT]D[Dab]L[NMeI][β3hP]-NH2; N-terminus assumed) | 0.49 nM
CC[C@H](C)[C@@H](C(=O)N1CCC[C@H]1C(N)=O)N(C)C(=O)[C@H](CC(C)C)NC(=O)[C@H](C)NC(=O)[C@H](CC(=O)O)NC(=O)[C@H](C)N(C)C(=O)CCCNC(=O)c1ccc(Oc2ccccc2)cc1 [Compound 92] ({Benzoyl(4-OPh)-GABA}-[NMeA]DAL[NMeI]P-NH2; N-terminus assumed) | 0.31 nM
CC[C@H](C)[C@@H](C(=O)N1CCC[C@H]1C(N)=O)N(C)C(=O)[C@H](CC(C)C)NC(=O)[C@H](C)NC(=O)[C@H](CC(=O)O)NC(=O)[C@H](CC(N)=O)N(C)C(=O)CCCNC(=O)c1ccc(Oc2ccccc2)cc1 [Compound 94] ({Benzoyl(4-OPh)-GABA}-[NMeN]DAL[NMeI]P-NH2; N-terminus assumed) | 0.088 nM
CC[C@H](C)[C@@H](C(=O)NC(C)(C)C(N)=O)N(C)C(=O)[C@H](CC(C)C)NC(=O)[C@H](C)NC(=O)[C@H](CC(=O)O)NC(=O)[C@H](C)N(C)C(=O)CCCNC(=O)c1ccc(Oc2ccccc2)cc1 [Compound 96] ({Benzoyl(4-OPh)-GABA}-[NMeA]DAL[NMeI][Aib]-NH2) | 0.74 nM
CC[C@H](C)[C@@H](C(=O)NC(C)(C)C(N)=O)N(C)C(=O)[C@H](CC(C)C)NC(=O)[C@H](C)NC(=O)[C@H](CC(=O)O)NC(=O)[C@H](CC(N)=O)N(C)C(=O)CCCNC(=O)c1ccc(Oc2ccccc2)cc1 [Compound 98] ({Benzoyl(4-OPh)-GABA}-[NMeN]DAL[NMeI][Aib]-NH2; N-terminus assumed) | 0.27 nM
CC[C@H](C)[C@@H](C(=O)N1CCC[C@H]1C(N)=O)N(C)C(=O)[C@H](CC(C)C)NC(=O)[C@H](C)NC(=O)[C@H](CC(=O)O)NC(=O)[C@H](C)N(C)C(=O)CCCN(C)C(=O)c1ccc(Oc2ccccc2)cc1 [Compound 100] ({Benzoyl(4-OPh)}-[NMeGABA][NMeA]DAL[NMeI]P-NH2; N-terminus assumed) | 1.2 nM
CC[C@H](C)[C@@H](C(=O)N1CCC[C@H]1C(N)=O)N(C)C(=O)[C@H](CC(C)C)NC(=O)[C@H](C)NC(=O)[C@H](CC(=O)O)NC(=O)[C@H](CC(N)=O)N(C)C(=O)CCCN(C)C(=O)c1ccc(Oc2ccccc2)cc1 [Compound 103] ({Benzoyl(4-OPh)}-[NMeGABA][NMeN]DAL[NMeI]P-NH2; N-terminus assumed) | 0.67 nM
CC[C@H](C)[C@@H](C(=O)N1CCC[C@H]1C(N)=O)N(C)C(=O)[C@H](CC(C)C)NC(=O)[C@H](CCN)NC(=O)[C@H](CC(=O)O)NC(=O)[C@H](CC(N)=O)NC(=O)CCCNC(=O)c1ccc(Oc2ccccc2)cc1 [Compound 107] ({Benzoyl(4-OPh)-GABA}-ND[Dab]L[NMeI]P-NH2; N-terminus assumed) | 0.32 nM
CC(C)C[C@H](NC(=O)[C@H](CCN)NC(=O)[C@H](CC(=O)O)NC(=O)[C@H](CC(N)=O)NC(=O)CCCNC(=O)c1ccc(Oc2ccccc2)cc1)C(=O)N(C)[C@@H](CCC(=O)O)C(=O)N1CCC[C@H]1CC(N)=O [Compound 108] ({Benzoyl(4-OPh)-GABA}-ND[Dab]L[NMeE][β3hP]-NH2) | 0.19 nM
CC(C)C[C@H](NC(=O)[C@H](CCN)NC(=O)[C@H](CC(=O)O)NC(=O)[C@H](CC(N)=O)NC(=O)CCCNC(=O)c1ccc(Oc2ccccc2)cc1)C(=O)N(C)[C@@H](CCC(=O)O)C(=O)N1CCC[C@H]1C(N)=O [Compound 109] ({Benzoyl(4-OPh)-GABA}-ND[Dab]L[NMeE]P-NH2; N-terminus assumed) | 0.7 nM
CC[C@H](C)[C@@H](C(=O)N1CCC[C@H]1CC(N)=O)N(C)C(=O)[C@H](CC(C)C)NC(=O)[C@H](CCN)NC(=O)[C@H](CC(=O)O)NC(=O)[C@H](CC(N)=O)N(C)C(=O)CCCNC(=O)c1ccc(Oc2ccccc2)cc1 [Compound 110] ({Benzoyl(4-OPh)-GABA}-[NMeN]D[Dab]L[NMeI][β3hP]-NH2; N-terminus assumed) | 0.37 nM
CC[C@H](C)[C@@H](C(=O)N1CCC[C@H]1C(N)=O)N(C)C(=O)[C@H](CC(C)C)NC(=O)[C@H](CCN)NC(=O)[C@H](CC(=O)O)NC(=O)[C@H](CC(N)=O)N(C)C(=O)CCCNC(=O)c1ccc(Oc2ccccc2)cc1 [Compound 111] ({Benzoyl(4-OPh)-GABA}-[NMeN]D[Dab]L[NMeI]P-NH2; N-terminus assumed) | 0.96 nM
CC(C)C[C@H](NC(=O)[C@H](CCN)NC(=O)[C@H](CC(=O)O)NC(=O)[C@H](CC(N)=O)N(C)C(=O)CCCNC(=O)c1ccc(Oc2ccccc2)cc1)C(=O)N(C)[C@@H](CCC(=O)O)C(=O)N1CCC[C@H]1CC(N)=O [Compound 112] ({Benzoyl(4-OPh)-GABA}-[NMeN]D[Dab]L[NMeE][β3hP]-NH2; N-terminus assumed) | 0.55 nM
CC(C)C[C@H](NC(=O)[C@H](CCN)NC(=O)[C@H](CC(=O)O)NC(=O)[C@H](CC(N)=O)N(C)C(=O)CCCNC(=O)c1ccc(Oc2ccccc2)cc1)C(=O)N(C)[C@@H](CCC(=O)O)C(=O)N1CCC[C@H]1C(N)=O [Compound 113] ({Benzoyl(4-OPh)-GABA}-[NMeN]D[Dab]L[NMeE]P-NH2; N-terminus assumed) | 2.2 nM
CC[C@H](C)[C@@H](C(=O)N1CCC[C@H]1C(N)=O)N(C)C(=O)[C@H](CC(C)C)NC(=O)[C@H](C)NC(=O)[C@H](CC(=O)O)NC(=O)[C@@H](CC(N)=O)NC(=O)CCCNC(=O)c1ccc(Oc2ccccc2)cc1 [Compound 114] ({Benzoyl(4-OPh)-GABA}-[dN]DAL[NMeI]P-NH2; N-terminus assumed) | 0.072 nM
CC[C@H](C)[C@@H](C(=O)N1CCC[C@H]1C(N)=O)N(C)C(=O)[C@H](CC(C)C)NC(=O)[C@H](C)NC(=O)[C@H](CC(=O)O)NC(=O)CN(C)C(=O)CCCNC(=O)c1ccc(Oc2ccccc2)cc1 [Compound 115] ({Benzoyl(4-OPh)-GABA}-[Sar]DAL[NMeI]P-NH2; N-terminus assumed) | 0.42 nM
CC[C@H](C)[C@@H](C(=O)N1CCC[C@H]1C(N)=O)N(C)C(=O)[C@H](CC(C)C)NC(=O)[C@H](C)NC(=O)[C@H](CC(=O)O)NC(=O)[C@@H]1CCCN1C(=O)CCCNC(=O)c1ccc(Oc2ccccc2)cc1 [Compound 117] ({Benzoyl(4-OPh)-GABA}-PDAL[NMeI]P-NH2; N-terminus assumed) | 0.55 nM
CC[C@H](C)[C@@H](C(=O)N1CCC[C@H]1C(N)=O)N(C)C(=O)[C@H](CC(C)C)NC(=O)[C@H](C)NC(=O)[C@H](CC(=O)O)NC(=O)[C@H](C(C)C)N(C)C(=O)CCCNC(=O)c1ccc(Oc2ccccc2)cc1 [Compound 119] ({Benzoyl(4-OPh)-GABA}-[NMeV]DAL[NMeI]P-NH2; N-terminus assumed) | 0.17 nM
CC[C@H](C)[C@@H](C(=O)N1CCC[C@H]1C(N)=O)N(C)C(=O)[C@H](CC(C)C)NC(=O)[C@H](C)NC(=O)[C@H](CC(=O)O)NC(=O)[C@H](CC(C)C)N(C)C(=O)CCCNC(=O)c1ccc(Oc2ccccc2)cc1 [Compound 120] ({Benzoyl(4-OPh)-GABA}-[NMeL]DAL[NMeI]P-NH2; N-terminus assumed) | 0.21 nM
CC[C@H](C)[C@@H](C(=O)N[C@@H](CC(=O)O)C(=O)N[C@@H](C)C(=O)N[C@@H](CC(C)C)C(=O)N(C)[C@H](C(=O)N1CCC[C@H]1C(N)=O)[C@@H](C)CC)N(C)C(=O)CCCNC(=O)c1ccc(Oc2ccccc2)cc1 [Compound 121] ({Benzoyl(4-OPh)-GABA}-[NMeI]DAL[NMeI]P-NH2; N-terminus assumed) | 0.19 nM
CC[C@H](C)[C@@H](C(=O)N1CCC[C@H]1C(N)=O)N(C)C(=O)[C@H](CC(C)C)NC(=O)[C@H](C)NC(=O)[C@H](CC(=O)O)NC(=O)[C@H](CCSC)N(C)C(=O)CCCNC(=O)c1ccc(Oc2ccccc2)cc1 [Compound 122] ({Benzoyl(4-OPh)-GABA}-[NMeM]DAL[NMeI]P-NH2; N-terminus assumed) | 0.16 nM
CC[C@H](C)[C@@H](C(=O)N1CCC[C@H]1C(N)=O)N(C)C(=O)[C@H](CC(C)C)NC(=O)[C@H](C)NC(=O)[C@H](CC(=O)O)NC(=O)[C@H](Cc1ccccc1)N(C)C(=O)CCCNC(=O)c1ccc(Oc2ccccc2)cc1 [Compound 124] ({Benzoyl(4-OPh)-GABA}-[NMeF]DAL[NMeI]P-NH2; N-terminus assumed) | 0.31 nM
CC[C@H](C)[C@@H](C(=O)N1CCC[C@H]1C(N)=O)N(C)C(=O)[C@H](CC(C)C)NC(=O)[C@H](C)NC(=O)[C@H](CC(=O)O)NC(=O)[C@H](CC(=O)O)N(C)C(=O)CCCNC(=O)c1ccc(Oc2ccccc2)cc1 [Compound 125] ({Benzoyl(4-OPh)-GABA}-[NMeD]DAL[NMeI]P-NH2) | 0.47 nM
